How the values were obtained:
[1] = target: T1, LecBPA7 (Pseudomonas paraeruginosa, UniProt A6V267); assay: ITC; format: binding; design: gene PSPA7_1769; recombinant LecBPA7
[2] = target: T1, LecBPA7; assay: X-ray crystal structure ([…] Å) and ITC; format: binding; design: gene PSPA7_1769; recombinant LecBPA7, 114 amino acids, tetramer

T1 sequence (A6V267 entry or part of it): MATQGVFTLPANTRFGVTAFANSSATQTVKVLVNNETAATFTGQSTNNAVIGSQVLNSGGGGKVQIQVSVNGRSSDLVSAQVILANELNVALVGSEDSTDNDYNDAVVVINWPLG

Compound | Kd [1] [µM] | Kd [2] [µM]
CO[C@@H]1O[C@@H](C)[C@@H](O)[C@@H](O)[C@@H]1O [FucOMe, methyl α-L-fucoside] | 2.2 | –
CC(=O)N[C@H]1[C@H](O[C@H]2[C@@H](O)[C@@H](CO)OC(O)[C@@H]2O)O[C@H](CO)[C@@H](O[C@@H]2O[C@@H](C)[C@@H](O)[C@@H](O)[C@@H]2O)[C@@H]1O[C@@H]1O[C@H](CO)[C@H](O)[C@H](O)[C@H]1O (stereo partly drawn) [Lewis^a tetrasaccharide] | – | 2.01
CO[C@H]1O[C@H](CO)[C@@H](O)[C@H](O)[C@@H]1O [ManOMe, methyl α-D-mannoside] | 73 | –

— article PMC4885879, “Genomic Rearrangements and Functional Diversification of lecA and lecB Lectin-Coding Regions Impacting the Efficacy of Glycomimetics Directed against Pseudomonas aeruginosa” (Frontiers in Microbiology, 2016)
